# Measurements reported in article PMC5218480 (PLoS ONE, 2017).
# Test system: MV-4-11 cells
# Assay: Gene expression microarray analysis (Affymetrix PrimeView) and GSEA
# Type: cell-based, human
# Design: RFU PODN (11730768_x_at) / Fold change /veh PODN (11730768_x_at) / RFU LINC00158 (11744669_a_at) / Fold change /veh LINC00158 (11744669_a_at) / RFU DUSP10 (11751237_a_at) / Fold change /veh DUSP10 (11751237_a_at) / RFU ID3 (11757404_x_at) / Fold change /veh ID3 (11757404_x_at) / RFU PLEKHG5 (11737974_s_at) / Fold change /veh PLEKHG5 (11737974_s_at) / RFU LRRC4B (11730491_at) / Fold change /veh LRRC4B (11730491_at) / RFU GIMAP4 (11747438_a_at) / Fold change /veh GIMAP4 (11747438_a_at) / RFU KRT8 (11758183_x_at) / Fold change /veh KRT8 (11758183_x_at) / RFU CNN1 (11734310_a_at) / Fold change /veh CNN1 (11734310_a_at) / RFU VPS37D (11726825_at) / Fold change /veh VPS37D (11726825_at) / RFU C10orf10 (11716522_x_at) / Fold change /veh C10orf10 (11716522_x_at) / RFU KIR2DL2 /// KIR2DL4 /// KIR2DL5A /// KIR2DL5B /// KIR2DS1 /// KIR2DS2 /// KIR2DS3 /// KIR2DS4 /// KIR3DL3 /// KIR3DL3 /// KIR3DS1 (11738374_at) / Fold change /veh KIR2DL2 /// KIR2DL4 /// KIR2DL5A /// KIR2DL5B /// KIR2DS1 /// KIR2DS2 /// KIR2DS3 /// KIR2DS4 /// KIR3DL3 /// KIR3DL3 /// KIR3DS1 (11738374_at) / RFU C1QL1 (11718748_at) / Fold change /veh C1QL1 (11718748_at) / RFU TMPRSS4 (11747572_a_at) / Fold change /veh TMPRSS4 (11747572_a_at) / RFU HAMP (11756126_x_at) / Fold change /veh HAMP (11756126_x_at) / RFU RNFT2 (11725882_a_at) / Fold change /veh RNFT2 (11725882_a_at) / RFU NR4A2 (11747474_a_at) / Fold change /veh NR4A2 (11747474_a_at) / RFU ABCC12 (11746883_a_at) / Fold change /veh ABCC12 (11746883_a_at) / RFU TMEM136 (11760407_x_at) / Fold change /veh TMEM136 (11760407_x_at) / RFU CLDN22 /// WWC2 (11732394_at) / Fold change /veh CLDN22 /// WWC2 (11732394_at) / RFU HLA-DPB1 (11760878_x_at) / Fold change /veh HLA-DPB1 (11760878_x_at) / RFU SPINT1 (11716480_a_at) / Fold change /veh SPINT1 (11716480_a_at) / RFU GAP43 (11754022_s_at) / Fold change /veh GAP43 (11754022_s_at) / RFU A4GNT (11735810_at) / Fold change /veh A4GNT (11735810_at) / RFU PRB3 (11715151_x_at) / Fold change /veh PRB3 (11715151_x_at) / RFU TUBB4B (11761932_at) / Fold change /veh TUBB4B (11761932_at) / RFU CAPN14 (11732068_a_at) / Fold change /veh CAPN14 (11732068_a_at) / RFU TMCC2 (11721928_a_at) / Fold change /veh TMCC2 (11721928_a_at) / RFU IRGQ (11745062_a_at) / Fold change /veh IRGQ (11745062_a_at) / RFU FAM174B (11720279_a_at) / Fold change /veh FAM174B (11720279_a_at) / RFU TMPRSS4 (11748680_a_at) / Fold change /veh TMPRSS4 (11748680_a_at) / RFU FAM212B (11763350_a_at) / Fold change /veh FAM212B (11763350_a_at) / RFU PLEKHG5 (11743358_a_at) / Fold change /veh PLEKHG5 (11743358_a_at) / RFU ZSCAN30 (11745921_a_at) / Fold change /veh ZSCAN30 (11745921_a_at) / RFU CMKLR1 (11741424_a_at) / Fold change /veh CMKLR1 (11741424_a_at) / RFU LOC101060620 /// MAPK8IP1 (11723275_at) / Fold change /veh LOC101060620 /// MAPK8IP1 (11723275_at) / RFU SPTSSB (11747773_x_at) / Fold change /veh SPTSSB (11747773_x_at) / RFU PRSS12 (11739890_at) / Fold change /veh PRSS12 (11739890_at) / RFU BIN1 (11741810_x_at) / Fold change /veh BIN1 (11741810_x_at) / RFU WNT11 (11732464_a_at) / Fold change /veh WNT11 (11732464_a_at) / RFU C10orf10 (11716521_a_at) / Fold change /veh C10orf10 (11716521_a_at) / RFU C5orf56 (11738089_at) / Fold change /veh C5orf56 (11738089_at) / RFU CYB561 (11721691_x_at) / Fold change /veh CYB561 (11721691_x_at) / RFU ANKRD19P (11752326_a_at) / Fold change /veh ANKRD19P (11752326_a_at) / RFU OR2T12 /// OR2T33 /// OR2T8 (11738714_s_at) / Fold change /veh OR2T12 /// OR2T33 /// OR2T8 (11738714_s_at) / RFU VCAN (11748164_a_at) / Fold change /veh VCAN (11748164_a_at) / RFU JSRP1 (11732532_at) / Fold change /veh JSRP1 (11732532_at) / RFU KRTAP10-11 (11738290_x_at) / Fold change /veh KRTAP10-11 (11738290_x_at) / RFU MYO3A (11730013_a_at) / Fold change /veh MYO3A (11730013_a_at) / RFU EBF3 (11725865_a_at) / Fold change /veh EBF3 (11725865_a_at) / RFU CAMK2N1 (11719241_x_at) / Fold change /veh CAMK2N1 (11719241_x_at) / RFU C5orf56 (11738088_a_at) / Fold change /veh C5orf56 (11738088_a_at) / RFU OLFML3 (11715873_a_at) / Fold change /veh OLFML3 (11715873_a_at) / RFU LOC100653217 /// NTM (11731650_a_at) / Fold change /veh LOC100653217 /// NTM (11731650_a_at) / RFU MAPK11 (11762145_a_at) / Fold change /veh MAPK11 (11762145_a_at) / RFU FIZ1 (11724087_x_at) / Fold change /veh FIZ1 (11724087_x_at) / RFU OASL (11726364_x_at) / Fold change /veh OASL (11726364_x_at) / RFU SOX15 (11748057_x_at) / Fold change /veh SOX15 (11748057_x_at) / RFU CD79A (11719716_a_at) / Fold change /veh CD79A (11719716_a_at) / RFU HIST1H1D (11736915_at) / Fold change /veh HIST1H1D (11736915_at) / RFU CASKIN2 (11723855_a_at) / Fold change /veh CASKIN2 (11723855_a_at) / RFU LOC730098 (11760151_x_at) / Fold change /veh LOC730098 (11760151_x_at) / RFU OR4N2 (11742367_at) / Fold change /veh OR4N2 (11742367_at) / RFU PRRT2 (11749266_a_at) / Fold change /veh PRRT2 (11749266_a_at) / RFU SNX32 (11753110_a_at) / Fold change /veh SNX32 (11753110_a_at) / RFU CDHR5 (11726645_a_at) / Fold change /veh CDHR5 (11726645_a_at) / RFU RCAN1 (11760418_a_at) / Fold change /veh RCAN1 (11760418_a_at) / RFU FAM167A (11723789_a_at) / Fold change /veh FAM167A (11723789_a_at) / RFU FAM26E (11764081_at) / Fold change /veh FAM26E (11764081_at) / RFU ISYNA1 (11749810_s_at) / Fold change /veh ISYNA1 (11749810_s_at) / RFU ACY1 (11761880_at) / Fold change /veh ACY1 (11761880_at) / RFU 11764098_at / Fold change /veh 11764098_at / RFU SAMD14 (11745864_x_at) / Fold change /veh SAMD14 (11745864_x_at) / RFU NPB (11741838_a_at) / Fold change /veh NPB (11741838_a_at) / RFU TMPRSS6 (11731388_a_at) / Fold change /veh TMPRSS6 (11731388_a_at) / RFU KRTAP10-2 (11738614_at) / Fold change /veh KRTAP10-2 (11738614_at) / RFU ARHGAP8 /// PRR5-ARHGAP8 (11727945_x_at) / Fold change /veh ARHGAP8 /// PRR5-ARHGAP8 (11727945_x_at) / RFU KRTAP5-7 /// NADSYN1 (11734609_at) / Fold change /veh KRTAP5-7 /// NADSYN1 (11734609_at) / RFU RASL12 (11751679_a_at) / Fold change /veh RASL12 (11751679_a_at) / RFU CDKN2B (11736163_a_at) / Fold change /veh CDKN2B (11736163_a_at) / RFU PRF1 (11729649_at) / Fold change /veh PRF1 (11729649_at) / RFU, ZNF638 /// ZNF638-IT1 / Fold change vs veh, ZNF638 /// ZNF638-IT1 / RFU, PANK3 / Fold change vs veh, PANK3 / RFU, SH3YL1 / Fold change vs veh, SH3YL1 / RFU, ZEB2 / Fold change vs veh, ZEB2 / RFU, NRIP1 / Fold change vs veh, NRIP1 / RFU, PTTG1IP / Fold change vs veh, PTTG1IP / RFU, CAPN2 / Fold change vs veh, CAPN2 / RFU, MED14 / Fold change vs veh, MED14 / RFU, SNORA58 / Fold change vs veh, SNORA58 / RFU, C1orf63 / Fold change vs veh, C1orf63 / RFU, LRRFIP1 / Fold change vs veh, LRRFIP1 / RFU, NDUFAF7 / Fold change vs veh, NDUFAF7 / RFU, SLC12A2 / Fold change vs veh, SLC12A2 / RFU, IBTK / Fold change vs veh, IBTK / RFU, ESF1 / Fold change vs veh, ESF1 / Fold change vs veh, TMEM50B / RFU, TAOK1 / Fold change vs veh, TAOK1 / RFU, ACBD3 / Fold change vs veh, ACBD3 / RFU, TMA16 / Fold change vs veh, TMA16 / RFU, RWDD3 / Fold change vs veh, RWDD3 / RFU, BCAT1 / Fold change vs veh, BCAT1 / RFU, EDEM3 / Fold change vs veh, EDEM3 / RFU, TMEM33 / Fold change vs veh, TMEM33 / RFU, WDR75 / Fold change vs veh, WDR75 / RFU, AHCTF1 / Fold change vs veh, AHCTF1 / RFU, TFRC / Fold change vs veh, TFRC / RFU, ZDHHC17 / Fold change vs veh, ZDHHC17 / RFU, NOM1 / Fold change vs veh, NOM1 / RFU, ARL8B / Fold change vs veh, ARL8B / RFU, ZBTB11 / Fold change vs veh, ZBTB11 / RFU, TAMM41 / Fold change vs veh, TAMM41 / RFU, KIAA1704 /// LOC100996395 / Fold change vs veh, KIAA1704 /// LOC100996395 / RFU, ING1 / Fold change vs veh, ING1 / RFU, TRMT61B / Fold change vs veh, TRMT61B / RFU, FUBP3 / Fold change vs veh, FUBP3 / RFU, TP53 / Fold change vs veh, TP53 / RFU, TNKS2 / Fold change vs veh, TNKS2 / RFU, ZFP14 / Fold change vs veh, ZFP14 / RFU, ACTR2 / Fold change vs veh, ACTR2 / RFU, PPP3R1 / Fold change vs veh, PPP3R1 / RFU, PIK3R1 / Fold change vs veh, PIK3R1 / RFU, HNRNPA1 / Fold change vs veh, HNRNPA1 / RFU, RNF170 / Fold change vs veh, RNF170 / RFU, ZNF28 / Fold change vs veh, ZNF28 / RFU, RNGTT / Fold change vs veh, RNGTT / RFU, OGT / Fold change vs veh, OGT / RFU, BRD1 / Fold change vs veh, BRD1 / RFU, MARS / Fold change vs veh, MARS / RFU, ZNF655 / Fold change vs veh, ZNF655 / RFU, FAHD1 / Fold change vs veh, FAHD1 / RFU, BDP1 / Fold change vs veh, BDP1 / RFU, LRRCC1 / Fold change vs veh, LRRCC1 / RFU, ARID1A / Fold change vs veh, ARID1A / RFU, ZNF146 / Fold change vs veh, ZNF146 / RFU, ZNF330 / Fold change vs veh, ZNF330 / RFU, GPN3 / Fold change vs veh, GPN3 / RFU, C9orf123 / Fold change vs veh, C9orf123 / RFU, N4BP2L2 / Fold change vs veh, N4BP2L2 / RFU, ARFIP1 / Fold change vs veh, ARFIP1 / RFU, FAM179B / Fold change vs veh, FAM179B / RFU, BCL10 / Fold change vs veh, BCL10 / RFU, UHRF1BP1L / Fold change vs veh, UHRF1BP1L / RFU, BET1 / Fold change vs veh, BET1 / RFU, CNOT2 / Fold change vs veh, CNOT2 / RFU, ZNF268 / Fold change vs veh, ZNF268 / Fold change vs veh, ZNF507 / RFU, DGCR2 / Fold change vs veh, DGCR2 / RFU, WDSUB1 / Fold change vs veh, WDSUB1 / Fold change vs veh, HSP90B1 /// MIR3652 / RFU, ADSS / Fold change vs veh, ADSS / RFU, GK / Fold change vs veh, GK / RFU, ZNF148 / Fold change vs veh, ZNF148 / RFU, TAF9 / Fold change vs veh, TAF9 / RFU, SLC1A5 / Fold change vs veh, SLC1A5 / RFU, SLMO2 / Fold change vs veh, SLMO2 / RFU, ABCC4 / Fold change vs veh, ABCC4 / RFU, LOC101060439 /// RAP1B / Fold change vs veh, LOC101060439 /// RAP1B / RFU, RFX7 / Fold change vs veh, RFX7 / RFU, GTPBP10 / Fold change vs veh, GTPBP10 / RFU, CNEP1R1 / Fold change vs veh, CNEP1R1 / RFU, BIVM-ERCC5 /// ERCC5 / Fold change vs veh, BIVM-ERCC5 /// ERCC5 / RFU, ILF3 / Fold change vs veh, ILF3 / RFU 11762660_at / Fold change /veh 11762660_at / RFU VCAN (11757783_s_at) / Fold change /veh VCAN (11757783_s_at) / RFU DDX43 (11728927_at) / Fold change /veh DDX43 (11728927_at) / RFU KRT8 (11758188_x_at) / Fold change /veh KRT8 (11758188_x_at) / RFU NKD1 (11759106_at) / Fold change /veh NKD1 (11759106_at) / RFU SRD5A1 (11742802_a_at) / Fold change /veh SRD5A1 (11742802_a_at) / RFU TPSAB1 /// TPSB2 (11721975_s_at) / Fold change /veh TPSAB1 /// TPSB2 (11721975_s_at) / RFU GSTM3 (11746129_a_at) / Fold change /veh GSTM3 (11746129_a_at) / RFU IL23R (11737362_x_at) / Fold change /veh IL23R (11737362_x_at) / RFU TMEM51 (11727254_a_at) / Fold change /veh TMEM51 (11727254_a_at) / RFU PIWIL2 (11732686_x_at) / Fold change /veh PIWIL2 (11732686_x_at) / RFU ORM1 (11744905_x_at) / Fold change /veh ORM1 (11744905_x_at) / RFU CCDC152 (11743942_at) / Fold change /veh CCDC152 (11743942_at) / RFU ECM1 (11717891_a_at) / Fold change /veh ECM1 (11717891_a_at) / RFU IL23R (11748794_a_at) / Fold change /veh IL23R (11748794_a_at) / RFU TNFAIP8L3 (11732012_x_at) / Fold change /veh TNFAIP8L3 (11732012_x_at) / RFU MBOAT4 (11741988_at) / Fold change /veh MBOAT4 (11741988_at) / RFU 11764193_at / Fold change /veh 11764193_at / RFU TMEM53 (11763286_at) / Fold change /veh TMEM53 (11763286_at) / RFU MAGEB2 (11727129_at) / Fold change /veh MAGEB2 (11727129_at) / RFU TMEM200A (11744735_a_at) / Fold change /veh TMEM200A (11744735_a_at) / RFU CCDC152 (11751479_a_at) / Fold change /veh CCDC152 (11751479_a_at) / RFU FAM211A (11726209_a_at) / Fold change /veh FAM211A (11726209_a_at) / RFU RGS16 (11746705_a_at) / Fold change /veh RGS16 (11746705_a_at) / RFU VCAN (11755009_s_at) / Fold change /veh VCAN (11755009_s_at) / RFU RHOB (11743442_s_at) / Fold change /veh RHOB (11743442_s_at) / RFU RGS16 (11720943_a_at) / Fold change /veh RGS16 (11720943_a_at) / RFU RGS16 (11720944_at) / Fold change /veh RGS16 (11720944_at) / RFU, VPS4B / Fold change vs veh, VPS4B / RFU, CREB1 / Fold change vs veh, CREB1 / RFU, DNAJC13 / Fold change vs veh, DNAJC13 / RFU, GNAQ / Fold change vs veh, GNAQ / RFU, CDK5R1 / Fold change vs veh, CDK5R1 / RFU, ZRANB3 / Fold change vs veh, ZRANB3 / RFU, CUL4A / Fold change vs veh, CUL4A / RFU, CCNY / Fold change vs veh, CCNY / RFU, UFL1 / Fold change vs veh, UFL1 / RFU, COG3 / Fold change vs veh, COG3 / RFU, DIAPH2 / Fold change vs veh, DIAPH2 / RFU, SKA2 / Fold change vs veh, SKA2 / RFU, AFF3 / Fold change vs veh, AFF3 / RFU, LMF1 / Fold change vs veh, LMF1 / RFU, IPO11 / Fold change vs veh, IPO11 / RFU, DFFB / Fold change vs veh, DFFB / RFU, FOXP1 / Fold change vs veh, FOXP1 / RFU, CARD8 / Fold change vs veh, CARD8 / RFU, STRN3 / Fold change vs veh, STRN3 / RFU, ADK / Fold change vs veh, ADK / RFU, RASSF2 / Fold change vs veh, RASSF2 / RFU, WIPF1 / Fold change vs veh, WIPF1 / RFU, LARP1B / Fold change vs veh, LARP1B / RFU, RASA1 / Fold change vs veh, RASA1 / RFU, RB1 / Fold change vs veh, RB1 / RFU, PPFIA1 / Fold change vs veh, PPFIA1 / RFU, MAT2A / Fold change vs veh, MAT2A / RFU, CCT5 / Fold change vs veh, CCT5 / RFU, WDR92 / Fold change vs veh, WDR92 / RFU, CUX1 / Fold change vs veh, CUX1 / RFU, TTC7A / Fold change vs veh, TTC7A / RFU, TMEM135 / Fold change vs veh, TMEM135 / RFU, DEPTOR / Fold change vs veh, DEPTOR / RFU, CPM / Fold change vs veh, CPM / RFU, DNAJB6 / Fold change vs veh, DNAJB6 / RFU, CACNA2D3 / Fold change vs veh, CACNA2D3 / RFU, DTX4 / Fold change vs veh, DTX4 / RFU, TFCP2 / Fold change vs veh, TFCP2 / RFU, GMCL1 /// GMCL1P1 / Fold change vs veh, GMCL1 /// GMCL1P1 / RFU, AEBP2 / Fold change vs veh, AEBP2 / RFU, SNHG1 /// SNORD22 /// SNORD25 /// SNORD26 /// SNORD27 /// SNORD28 /// SNORD29 /// SNORD31 / Fold change vs veh, SNHG1 /// SNORD22 /// SNORD25 /// SNORD26 /// SNORD27 /// SNORD28 /// SNORD29 /// SNORD31 / Fold change (Aza/veh), C12orf56 (ProbeSet 11735607_a_at) / Fold change (ACY-1035/veh), C12orf56 (ProbeSet 11735607_a_at) / Fold change (Aza/veh), FGFR1OP (ProbeSet 11751329_s_at) / Fold change (ACY-1035/veh), FGFR1OP (ProbeSet 11751329_s_at) / Fold change (Aza/veh), VPS36 (ProbeSet 11739960_a_at) / Fold change (ACY-1035/veh), VPS36 (ProbeSet 11739960_a_at) / RFU SYPL1 (11715823_x_at) / Fold change /veh SYPL1 (11715823_x_at) / RFU IGFBP7 (11715501_s_at) / Fold change /veh IGFBP7 (11715501_s_at) / RFU REEP3 (11722064_at) / Fold change /veh REEP3 (11722064_at) / RFU IGLL1 (11728026_x_at) / Fold change /veh IGLL1 (11728026_x_at): dose or concentration left out as unconfirmed
# Conditions: MV-4-11 cells, 48 hours
smiles,measurement,value
Nc1ccc(-c2cccs2)cc1NC(=O)c1ccc2c(c1)cc(C1CC1)n2CCN1CCOCC1 [ACY-1035],RFU REEP3 (11722064_at),19.86 RFU
